The subject of the test is Candida tropicalis. Put plainly: Broth microdilution (M27-A3, M27-S4), gold standard culture-based AST. Format: cell-based.

The results in this text go back to US20220380829A1, “Method of Diagonosizing Pathogens and their Antimicrobial Susceptibility” (HANGZHOU DIAN MEDICAL LABORATORY CO., LTD., priority 2019, published 2022).

In the case of `OC(Cn1cncn1)(Cn1cncn1)c1ccc(F)cc1F` [FLU], the “Resistance profiles by broth microdilution (the gold standard)” value by setting is: (blind-1) “R”; (blind-2) “S”; (blind-3) “R”; (blind-4) “R”; (blind-5) “S”; (blind-6) “S”.
